Experimental data reported in patent US8772243B2, “Methods for predicting the response to anti-cancer treatment with an agonist of TLR7 or an agonist of TLR8” (Inserm (Institut National de la Sante et de la Recherche …, priority 2008, dated 2014).

What was measured:
[1] = test system: A549 cells; assay: A549 xenograft in NOD/SCID mice; assay type: in vivo
Protocol: Mice were anesthetized by intra-peritoneal injection of a solution containing 3.2 mg of ketamine (Virbac) and 0.16 mg of xylasine (Rompum 2%, Bayer Healthcare) in 80 μl of PBS (Gibco). Five days prior to experimentation, A549 cells were pre-stimulated with 100 μM Loxoribine (Invivogen) or left unstimulated. For each condition 5×10^6 cells were diluted in 250 μl PBS and injected subcutaneously to 5 mice per group and were re-stimulated either with 50 μl PBS or with 100 nmol of Loxoribine diluted in 50 μl PBS. Stimulating injections into the tumor site were carried out on the day the cells were injected and then on days 3, 6 and 9. The mice then received either 120 μA PBS, or a chemotherapy of cisplatine (2 mg/kg/injection diluted in 120 μl PBS) on days 18, 20 and 22, both intra-peritoneal. The volume of the tumor was determined by measuring the length (Lg), the width (Wi) of the tumor and by calculating (Lg*(Wi*Wi)/2.

[2] = test system: IκBα (NF-κB activation) in A549 cells; assay: Western blot of IκBα phosphorylation and degradation (NF-κB activation) in A549 cells; assay type: cell-based, human; conditions: loxoribine 10 μg/ml or Poly U 10 μg/ml
Protocol: FIG. 3 TLR7 and TLR8 lead to IκBα phosphorylation, but not degradation. A549 cells were untreated or treated with TNF-α (10 ng/ml) (A, B), loxoribine (10 μg/ml) (C, D), or Poly U (10 μg/ml) (E, F) for the indicated periods of time. The cell lysates were analyzed by immunoblot with anti-phospho-specific IκBα, anti-IκBα and anti-actin antibodies (A, C, E). Quantification of the bands was realized using Image J software (B, D, F). Histograms represent the intensity of each band observed in the blots at the indicated time point and are expressed in arbitrary units normalized to actin intensity (relative intensity) both for phospho-IκBα and IκBα. Results are representative of three independent experiments.
A549 cells (1.10^6 cells) were starved for 4 hours in medium containing 2% FCS, and then stimulated with loxoribine, PolyU, or TNFα (10 ng/ml) for different periods of time as indicated. Cells were lysed in 50 mM Tris-HCl, pH 7.5, 150 mM NaCl, 2 mM EDTA, 0.5% triton X100, 2 mM Na3VO4, 10 mM NaF, and 10 mM sodium pyrophosphate supplemented with a complete protease inhibitor cocktail (Boehringer, Paris, France). Protein contents in the cell lysates were quantified using the quick start Bradford protein assay kit (Biorad, Marnes-La-Coquette, France) to ensure that all samples contained similar amounts of protein. Proteins (30 μg) were resolved in 10% Tris-glycine polyacrylamide gels (Invitrogen, Cergy Pontoise, France) and transferred to PVDF immobilon-P membranes (Millipore, Molsheim, France). Blots were probed with monoclonal antibody against phospho-IκBα (Cell Signaling Technology, Danvers, USA), total IκBα, and actin (Santa Cruz, Le Perray en Yvelines, France).
In order to determine if the TLR7 and 8 expressed by lung tumor cell lines were able to induce intracellular signaling pathways, we studied NF-κB activation in response to stimulation with TNFα, loxoribine (homodimeric TLR7 ligand), or Poly U (homodimeric TLR8 ligand). […] In contrast TLR7 or 8 stimulation led to atypical NF-κB activation. […] Furthermore, we also observed that the kinetics of IκBα phosphorylation were dependent on the stimulus. On the one hand, TNFα stimulation induced two waves of IκBα phosphorylation; the first one after ten minutes was associated with IκBα degradation, and the second one after sixty minutes was not associated with IκBα degradation. On the other hand, we observed that TLR stimulation induced only a phosphorylation of IκBα, with a maximum phosphorylation obtained after thirty minutes without degradation of IκBα.

Compound	tumor volume by week 14 ([1]; A549 cells pre-stimulated 100 μM, 100 nmol into tumor site days 0, 3, 6, 9, control group 4 cm^3)	metastases at autopsy ([1]; Loxoribine mice versus control mice)	time of 50% mortality ([1]; Loxoribine mice, NS mice towards week 17)	tumor volume seven weeks after injection of tumor cells ([1]; PBS-treated Loxoribine pre-stimulated group, PBS-treated NS group 1.9 cm^3)	tumor volume ratio, Loxoribine pre-stimulated versus NS group ([1]; PBS-treated, seven weeks after injection)	time at which IκBα was phosphorylated (maximum phosphorylation) [2]
C=CCn1c(=O)n([C@@H]2O[C@H](CO)[C@@H](O)[C@H]2O)c2nc(N)[nH]c(=O)c21 [loxoribine, 7-allyl-7,8-dihydro-8-oxo-guanosine]	8 cm^3	more ganglionic and pulmonary metastases than control mice	~15 week	5.3 cm^3	2.5 times	thirty
Poly U	–	–	–	–	–	thirty
